Data taken from PubChem BioAssay AID248 (DTP/NCI, 2004).
“And” between values parts separate entries of the source, which are not always exact repeats. Equal values may be shown once. Toxic doses and inconclusive results are not listed. Rule as the data show it: active = T/C of 150% or more; inactive = T/C below 125%.

System: L1210 leukemia ip in BDF1 mice, survival T/C
Assay: NCI In Vivo Anticancer Drug Screen. Data for tumor model L1210 Leukemia (intraperitoneal) in B6D2F1 (BDF1) mice
Settings: endpoint: mean survival time, higher = longer survival
How it was run: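 Antitumor effect is assessed in tumor-bearing animals. Survival in the compound arm is compared with a vehicle-dosed control arm and expressed as their quotient.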

[1] = dose: 100.0 mg/kg/injection, schedule: Q04DX003 (ip), vehicle: saline with Tween-80
[2] = dose: 200.0 mg/kg/injection, schedule: Q04DX003 (ip), vehicle: saline with Tween-80
[3] = dose: 400.0 mg/kg/injection, schedule: Q04DX003 (ip), vehicle: saline with Tween-80
[4] = dose: 100.0 mg/kg/injection, schedule: Q01DX001 (ip), vehicle: carboxymethylcellulose (CMC)
[5] = dose: 200.0 mg/kg/injection, schedule: Q01DX001 (ip), vehicle: carboxymethylcellulose (CMC)
[6] = dose: 400.0 mg/kg/injection, schedule: Q01DX001 (ip), vehicle: carboxymethylcellulose (CMC)
[7] = dose: 75.0 mg/kg/injection, schedule: Q01DX001 (ip), vehicle: saline

Measured: T/C

N/C(=N\[N+](=O)[O-])N(CCCCl)N=O
inactive: dose: 3.12 mg/kg/injection, schedule: Q01DX Z (ip), vehicle: saline 105 % of control | dose: 6.25 mg/kg/injection, schedule: Q01DX Z (ip), vehicle: saline 106 % of control | dose: 12.5 mg/kg/injection, schedule: Q01DX Z (ip), vehicle: saline 106 % of control | dose: 18.75 mg/kg/injection, schedule: Q01DX009 (ip), vehicle: saline with Tween-80 107 % of control | dose: 25.0 mg/kg/injection, schedule: Q01DX Z (ip), vehicle: saline 120 % of control | dose: 37.5 mg/kg/injection, schedule: Q01DX009 (ip), vehicle: saline with Tween-80 103 % of control | dose: 40.0 mg/kg/injection, schedule: Q01DX Z (ip), vehicle: carboxymethylcellulose (CMC) 119 % of control | dose: 50.0 mg/kg/injection, schedule: Q01DX001 (ip), vehicle: saline 108 % of control | dose: 60.0 mg/kg/injection, schedule: Q01DX Z (ip), vehicle: carboxymethylcellulose (CMC) 116 % of control | dose: 75.0 mg/kg/injection, schedule: Q01DX009 (ip), vehicle: saline with Tween-80 123 % of control | dose: 90.0 mg/kg/injection, schedule: Q01DX Z (ip), vehicle: carboxymethylcellulose (CMC) 111 % of control | dose: 100.0 mg/kg/injection, schedule: Q01DX001 (ip), vehicle: saline 97 % of control | dose: 150.0 mg/kg/injection, schedule: Q01DX009 (ip), vehicle: saline with Tween-80 104 % of control | dose: 200.0 mg/kg/injection, schedule: Q01DX001 (ip), vehicle: saline 106 % of control

CCCCCC(C)C(=O)CCCC (stereo not given) (tested in a mixture with another compound)
inactive: [1] 106 % of control | [2] 97 % of control | [3] 86 % of control

O=C(CCc1ccc(O)cc1)c1ccccc1
inactive: dose: 100.0 mg/kg/injection, schedule: Q04DX002 (ip), vehicle: Klucel (hydroxypropylcellulose) (HPC) 97 % of control | dose: 200.0 mg/kg/injection, schedule: Q04DX002 (ip), vehicle: Klucel (hydroxypropylcellulose) (HPC) 87 % of control | dose: 400.0 mg/kg/injection, schedule: Q04DX002 (ip), vehicle: Klucel (hydroxypropylcellulose) (HPC) 94 % of control

CCn1c(Cl)c(C(=O)O)c2ccccc21
inactive: dose: 50.0 mg/kg/injection, schedule: Q04DX003 (ip), vehicle: Klucel (hydroxypropylcellulose) (HPC) 97 % of control | dose: 100.0 mg/kg/injection, schedule: Q04DX003 (ip), vehicle: Klucel (hydroxypropylcellulose) (HPC) 97 % of control | dose: 200.0 mg/kg/injection, schedule: Q04DX003 (ip), vehicle: Klucel (hydroxypropylcellulose) (HPC) 97 % of control

Nc1c(Br)cc2c(c1Br)C(=O)c1ccccc1-2
inactive: [4] 98 % of control | [5] 109 % of control | [6] 102 % of control

O=C(O)c1cc(N=Nc2cccc([N+](=O)[O-])c2)ccc1O
inactive: dose: 62.5 mg/kg/injection, schedule: Q01DX001 (ip), vehicle: Klucel (hydroxypropylcellulose) (HPC) 97 % of control | dose: 125.0 mg/kg/injection, schedule: Q01DX001 (ip), vehicle: Klucel (hydroxypropylcellulose) (HPC) 92 % of control

CCCCC(=O)N/N=C\c1cc([N+](=O)[O-])ccc1O
inactive: [4] 91 % of control | [5] 98 % of control | [6] 87 % of control

COc1ccccc1C1CCCCCCC1OS(=O)(=O)c1ccc(C)cc1 (stereo not given)
inactive: dose: 18.75 mg/kg/injection, schedule: Q01DX009 (ip), vehicle: saline 97 % of control | dose: 37.5 mg/kg/injection, schedule: Q01DX009 (ip), vehicle: saline 95 % of control | dose: 75.0 mg/kg/injection, schedule: Q01DX001 (ip), vehicle: acetone 89 % of control | [7] 90 % of control | dose: 75.0 mg/kg/injection, schedule: Q01DX009 (ip), vehicle: saline 90 % of control | dose: 75.0 mg/kg/injection, schedule: Q04DX003 (ip), vehicle: saline 88 % of control | dose: 112.0 mg/kg/injection, schedule: Q01DX009 (ip), vehicle: saline 103 % of control | dose: 150.0 mg/kg/injection, schedule: Q01DX001 (ip), vehicle: saline 93 % of control | dose: 150.0 mg/kg/injection, schedule: Q04DX003 (ip), vehicle: saline 92 % of control | dose: 170.0 mg/kg/injection, schedule: Q01DX009 (ip), vehicle: saline 96 % of control | dose: 255.0 mg/kg/injection, schedule: Q01DX009 (ip), vehicle: saline 100 % of control | dose: 300.0 mg/kg/injection, schedule: Q01DX001 (ip), vehicle: acetone 89 % of control | dose: 300.0 mg/kg/injection, schedule: Q01DX001 (ip), vehicle: saline 92 % of control

c1ccc(-c2ncc3cnccn23)cc1
inactive: dose: 25.0 mg/kg/injection, schedule: Q04DX003 (ip), vehicle: saline 100 % of control | dose: 50.0 mg/kg/injection, schedule: Q04DX003 (ip), vehicle: saline 102 % of control | dose: 100.0 mg/kg/injection, schedule: Q04DX003 (ip), vehicle: saline 98 % of control and 102 % of control

Cn1c2ccc(Cl)cc2c2nnc(NCCCO)nc21
inactive: dose: 100.0 mg/kg/injection, schedule: Q04DX002 (ip), vehicle: saline 97 % of control | dose: 200.0 mg/kg/injection, schedule: Q04DX002 (ip), vehicle: saline 89 % of control | dose: 400.0 mg/kg/injection, schedule: Q04DX002 (ip), vehicle: saline 93 % of control

O=c1[nH]cnc2c1ncn2C1OC(CF)C(O)C1O (stereo not given)
inactive: dose: 100.0 mg/kg/injection, schedule: Q01DX009 (ip), vehicle: saline 101 % of control | dose: 100.0 mg/kg/injection, schedule: Q04DX003 (ip), vehicle: other 112 % of control | dose: 200.0 mg/kg/injection, schedule: Q01DX009 (ip), vehicle: saline 101 % of control | dose: 200.0 mg/kg/injection, schedule: Q04DX003 (ip), vehicle: other 103 % of control | dose: 400.0 mg/kg/injection, schedule: Q01DX009 (ip), vehicle: saline 101 % of control | dose: 400.0 mg/kg/injection, schedule: Q04DX003 (ip), vehicle: other 98 % of control

COC1CCC=CO1 (stereo not given)
inactive: dose: 13.3 mg/kg/injection, schedule: Q01DX Z (ip), vehicle: saline 93 % of control | dose: 20.0 mg/kg/injection, schedule: Q01DX Z (ip), vehicle: saline 105 % of control | dose: 30.0 mg/kg/injection, schedule: Q01DX Z (ip), vehicle: saline 109 % of control

O=Nc1ccc(N(CCO)CCO)cc1
inactive: dose: 5.0 mg/kg/injection, schedule: Q01DX001 (ip), vehicle: saline 97 % of control | dose: 10.0 mg/kg/injection, schedule: Q01DX001 (ip), vehicle: saline 97 % of control | dose: 20.0 mg/kg/injection, schedule: Q01DX001 (ip), vehicle: saline 101 % of control | dose: 40.0 mg/kg/injection, schedule: Q01DX001 (ip), vehicle: saline 111 % of control

CCCCCCCCCCCCC(=O)[O][Hg][c]1ccccc1
inactive: dose: 9.38 mg/kg/injection, schedule: Q01DX001 (ip), vehicle: steriod suspending solution 96 % of control | dose: 18.75 mg/kg/injection, schedule: Q01DX001 (ip), vehicle: steriod suspending solution 98 % of control

Cn1c(=O)n2n(c1=O)C1C=CC2C2C(Br)C(Br)C21 (stereo not given)
inactive: dose: 100.0 mg/kg/injection, schedule: Q01DX009 (ip), vehicle: saline with Tween-80 97 % of control | [1] 102 % of control | dose: 200.0 mg/kg/injection, schedule: Q01DX009 (ip), vehicle: saline with Tween-80 101 % of control | [2] 94 % of control | dose: 400.0 mg/kg/injection, schedule: Q01DX009 (ip), vehicle: saline with Tween-80 103 % of control | [3] 105 % of control

O=C(Nc1ccc(C(=O)c2ccccc2)cc1)Nc1ccc(C(=O)c2ccccc2)cc1
inactive: dose: 20.0 mg/kg/injection, schedule: Q01DX009 (ip), vehicle: saline with Tween-80 95 % of control | dose: 40.0 mg/kg/injection, schedule: Q01DX009 (ip), vehicle: saline with Tween-80 87 % of control | dose: 80.0 mg/kg/injection, schedule: Q01DX009 (ip), vehicle: saline with Tween-80 90 % of control | dose: 160.0 mg/kg/injection, schedule: Q01DX009 (ip), vehicle: saline with Tween-80 91 % of control | dose: 320.0 mg/kg/injection, schedule: Q01DX009 (ip), vehicle: saline with Tween-80 93 % of control

CC1(C)OCC(C2OC(=O)C=C2OS(=O)(=O)O)O1 (stereo not given)
inactive: [7] 95 % of control

Cc1ccccc1Sc1ncnc2nc[nH]c12
inactive: [1] 91 % of control | [2] 102 % of control | [3] 101 % of control
